The results in this text go back to US9265253B2, “Use of macrocyclic picolinamides as fungicides” (DOW AGROSCIENCES LLC, priority 2013, dated 2016).

Common to all, as to type: in vivo
Experiment [1] deals with Puccinia triticina; Synonym: Puccinia recondite f. Sp. Tritici. The experiment is described as follows: Wheat Brown Rust (PUCCRT) disease control. Particulars: for pest or weed control at 100 ppm / pest or weed control at 121.5 g/ha: Puccinia triticina, topical; for pest or weed control at 100 ppm: rate 100 ppm. The method, boiled down:
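Brown rust on first-leaf Yuma wheat: spore inoculation before or after spray application (acetone/Triton X-100 solution, or EC with Trycol in track spray), overnight 100% RH at 22 °C, disease developed at 24 °C. Severity scored 0–100% and converted to percent control against untreated.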

For a further experiment, the system named is Erysiphe cichoracearum. The experiment is described as follows: Powdery Mildew of Cucumber (ERYSCI) disease control. Particulars: Golovinomyces cichoracearum, topical, 24 h, 1 Day Protectant, read-out: Disease Control ERYSCI 1 DP. As to the method: Technical grades of materials were dissolved in acetone, which were then mixed with nine volumes of water containing 110 ppm Triton X-100. The fungicide solutions were applied onto wheat seedlings using an automated booth sprayer to run-off. All sprayed plants were allowed to air dry prior to further handling. All fungicides were evaluated using the aforementioned method for their activity vs. all target diseases. Wheat leaf blotch and brown rust activity were also evaluated using track spray applications, in which case the fungicides were formulated as EC formulations, containing 0.1% Trycol 5941 in the spray solutions. Wheat plants (variety Yuma) were grown from seed in a greenhouse in 50% mineral soil/50% soil-less Metro mix until the first leaf was fully emerged, with 7-10 seedlings per pot. These plants were inoculated with an aqueous spore suspension of Septoria tritici either prior to or after fungicide treatments. After inoculation the plants were kept in 100% relative humidity (one day in a dark dew chamber followed by two to three days in a lighted dew chamber at 20° C.) to permit spores to germinate and infect the leaf. The plants were then transferred to a greenhouse set at 20° C. for disease to develop. When disease symptoms were fully expressed on the 1st leaves of untreated plants, infection levels were assessed on a scale of 0 to 100 percent disease severity. Percent disease control was calculated using the ratio of disease severity on treated plants relative to untreated plants. Cucumber seedlings (variety Bush Pickle) were grown in soil-less Metro mix, with one plant per pot, and used in the test when 12 to 14 days old. Plants were inoculated with a spore suspension 24 hr following fungicide treatments. After inoculation the plants remained in the greenhouse set at 20° C. until disease was fully expressed. Fungicide formulation, application and disease assessment on the sprayed leaves followed the procedures as described in the Example A.

The next experiment relates to Venturia inaequalis. Description: Apple Scab (VENTIN) disease control. Particulars: Venturia inaequalis, topical, 24 h, 1 Day Protectant, read-out: Disease Control VENTIN 1 DP. As to the method: Technical grades of materials were dissolved in acetone, which were then mixed with nine volumes of water containing 110 ppm Triton X-100. The fungicide solutions were applied onto wheat seedlings using an automated booth sprayer to run-off. All sprayed plants were allowed to air dry prior to further handling. All fungicides were evaluated using the aforementioned method for their activity vs. all target diseases. Wheat leaf blotch and brown rust activity were also evaluated using track spray applications, in which case the fungicides were formulated as EC formulations, containing 0.1% Trycol 5941 in the spray solutions. Wheat plants (variety Yuma) were grown from seed in a greenhouse in 50% mineral soil/50% soil-less Metro mix until the first leaf was fully emerged, with 7-10 seedlings per pot. These plants were inoculated with an aqueous spore suspension of Septoria tritici either prior to or after fungicide treatments. After inoculation the plants were kept in 100% relative humidity (one day in a dark dew chamber followed by two to three days in a lighted dew chamber at 20° C.) to permit spores to germinate and infect the leaf. The plants were then transferred to a greenhouse set at 20° C. for disease to develop. When disease symptoms were fully expressed on the 1st leaves of untreated plants, infection levels were assessed on a scale of 0 to 100 percent disease severity. Percent disease control was calculated using the ratio of disease severity on treated plants relative to untreated plants. Apple seedlings (variety McIntosh) were grown in soil-less Metro mix, with one plant per pot. Seedlings with two expanding young leaves at the top (older leaves at bottom of the plants were trimmed) were used in the test. Plants were inoculated with a spore suspension of Venturia inaequalis 24 hr after fungicide treatment and kept in a 22° C. dew chamber with 100% RH for 48 hr, and then moved to a greenhouse set at 20° C. for disease to develop. Fungicide formulation, application and disease assessment on the sprayed leaves followed the procedures as described in the Example A.

In experiment [2] the test system is Mycosphaerella graminicola; Anamorph: Septoria tritici. Description: Leaf Blotch of Wheat (SEPTTR) disease control. Particulars: Zymoseptoria tritici; for pest or weed control at 100 ppm: rate 100 ppm; for pest or weed control at 121.5 g/ha: rate 121.5 g/H. Summed up: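 Yuma wheat, 1st leaf stage; spray to run-off, acetone + 9 vol water/110 ppm Triton X-100; S. tritici spores pre- or post-treatment; dew chamber 100% RH, then greenhouse 20° C. Read: % severity vs untreated → % control.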

Where [3] appears, read: 24 h, 1 Day Protectant, read-out: PUCCRT 1 DP disease control.
The mark [4] stands for this setting: 24 h, 1 Day Protectant, rate 121.5 g/H, read-out: PUCCRT 1 DP disease control.
[5] abbreviates: 72 h, 3 Day Curative, read-out: PUCCRT 3 DC disease control.
Where [6] appears, read: 24 h, 1 Day Protectant, read-out: SEPTTR 1 DP disease control.
The mark [7] stands for this setting: 72 h, 3 Day Curative, read-out: SEPTTR 3 DC disease control.
Where [8] appears, read: 72 h, 3 Day Curative, rate 121.5 g/H, read-out: PUCCRT 3 DC disease control.

Each structure is given as a SMILES string. Where two headings read alike, the source gives them in different places.

Regarding `COc1ccnc(C(=O)N[C@H]2CCC[C@H](Cc3ccc(F)cc3)[C@@H](OCC3CC3)[C@H](C)OC2=O)c1OCOC(C)=O` [Compound F96], the “PUCCRT 3 DC disease control” value in experiment [1] (3 Day Curative, rate 121.5 g/H) is “B (More than 0-Less than 80)”. Besides, the pest or weed control at 100 ppm in experiment [1] (setting [3]) lay in the range of 80 to 100%; in experiment [1] (setting [5]) it was 80 to 100%; with Erysiphe cichoracearum, 80 to 100%; in the experiment with Venturia inaequalis, 0 to 80%; in experiment [2] (setting [6]), 80 to 100%; in experiment [2] (setting [7]), 80 to 100%. Moreover, the pest or weed control at 121.5 g/ha in experiment [1] (setting [4]), in experiment [2] (setting [6]) and in experiment [2] (setting [7]) was 80 to 100% in each case.
With `COc1ccnc(C(=O)N[C@H]2CCC[C@H](Cc3ccc(F)cc3F)[C@@H](OC(=O)c3ccco3)[C@H](C)OC2=O)c1OCOC(C)=O` [Compound F144], the pest or weed control at 121.5 g/ha in experiment [1] (setting [4]) lay in the range of 80 to 100%; in experiment [2] (setting [6]), 80 to 100%; in experiment [2] (setting [7]), 0 to 80%. Moreover, the figures for the pest or weed control at 100 ppm in the experiment with Erysiphe cichoracearum and with Venturia inaequalis were 0 to 80% and 80 to 100%, respectively.
For `COc1ccnc(C(=O)N[C@H]2CCC[C@H](Cc3ccccc3)[C@@H](OCC(C)C)[C@H](C)OC2=O)c1OC(C)=O` [Compound F70], the pest or weed control at 100 ppm in experiment [1] (setting [3]) is 80 to 100%; in experiment [1] (setting [5]), 80 to 100%; in the experiment on Erysiphe cichoracearum, 80 to 100%; in the experiment on Venturia inaequalis, 0 to 80%; in experiment [2] (setting [6]) it was 80 to 100%; in experiment [2] (setting [7]), 80 to 100%. The pest or weed control at 121.5 g/ha in experiment [1] (setting [4]), in experiment [1] (setting [8]), in experiment [2] (setting [6]) and in experiment [2] (setting [7]) was 80 to 100% each time.
`COc1ccnc(C(=O)N[C@H]2CCC[C@H](Cc3ccc(F)cc3F)[C@@H](OCC(C)C)[C@H](C)OC2=O)c1OCOC(C)=O` [Compound F145]: the pest or weed control at 121.5 g/ha in experiment [1] (setting [4]), in experiment [1] (setting [8]), in experiment [2] (setting [6]) and in experiment [2] (setting [7]) was 80 to 100% in each case. Besides, the pest or weed control at 100 ppm in the experiment with Erysiphe cichoracearum and in the experiment on Venturia inaequalis was 80 to 100% each time.
Take `CCOCC(=O)OCOc1c(OC)ccnc1C(=O)N[C@H]1CCC[C@H](CCOC)[C@@H](Oc2ccccc2)[C@H](C)OC1=O` [Compound F183]: the pest or weed control at 100 ppm was in the range of 80 to 100% in experiment [1] (setting [3]); 80 to 100% in experiment [1] (setting [5]); 0 to 80% with Erysiphe cichoracearum; 0 to 80% with Venturia inaequalis; 80 to 100% in experiment [2] (setting [6]); 80 to 100% in experiment [2] (setting [7]). The pest or weed control at 121.5 g/ha in experiment [1] (setting [4]), in experiment [1] (setting [8]), in experiment [2] (setting [6]) and in experiment [2] (setting [7]) was 80 to 100% in each case.
On to `COc1ccnc(C(=O)N[C@H]2CCC[C@H](CCF)[C@@H](OCC(C)C)[C@H](C)OC2=O)c1OCOC(C)=O` [Compound F128, ((2-(((3S,7R,8R,9S)-7-(2-fluoroethyl)-8-isobutoxy-9-methyl-2-oxooxonan-3-yl)carbamoyl)-4-methoxypyridin-3-yl)oxy)methyl acetate], for which the pest or weed control at 100 ppm in experiment [1] (setting [3]) was 80 to 100%; in experiment [1] (setting [5]), 80 to 100%; with Erysiphe cichoracearum it was 0 to 80%; in the experiment with Venturia inaequalis it was 0 to 80%; in experiment [2] (setting [6]), 80 to 100%; in experiment [2] (setting [7]) it was 80 to 100%. The pest or weed control at 121.5 g/ha in experiment [1] (setting [4]), in experiment [1] (setting [8]), in experiment [2] (setting [6]) and in experiment [2] (setting [7]) was 80 to 100% in each case.
Turning to `COc1ccnc(C(=O)N[C@H]2CCC[C@H](Cc3ccccc3)[C@@H](OCC(C)C)[C@H](C)OC2=O)c1OCOC(=O)C(C)C` [Compound F151], the pest or weed control at 100 ppm lay within 80 to 100% in experiment [1] (setting [3]); 80 to 100% in experiment [1] (setting [5]); 80 to 100% in the experiment on Erysiphe cichoracearum; 0 to 80% with Venturia inaequalis; 80 to 100% in experiment [2] (setting [6]); 80 to 100% in experiment [2] (setting [7]). Also, the pest or weed control at 121.5 g/ha in experiment [1] (setting [4]), in experiment [1] (setting [8]), in experiment [2] (setting [6]) and in experiment [2] (setting [7]) was 80 to 100% each time.
For the compound `COc1ccnc(C(=O)N[C@H]2CCC[C@H](Cc3ccc(F)cc3)[C@@H](OCC3CC3)[C@H](C)OC2=O)c1OC(C)=O` [Compound F67], the pest or weed control at 100 ppm in experiment [1] (setting [3]) was in the range of 80 to 100%; in experiment [1] (setting [5]), 80 to 100%; in the experiment with Erysiphe cichoracearum it was 0 to 80%; in the experiment with Venturia inaequalis, 0 to 80%; in experiment [2] (setting [6]), 80 to 100%; in experiment [2] (setting [7]), 80 to 100%. The pest or weed control at 121.5 g/ha in experiment [1] (setting [4]), in experiment [1] (setting [8]), in experiment [2] (setting [6]) and in experiment [2] (setting [7]) was 80 to 100% in each case.
On to `CCCO[C@@H]1[C@@H](Cc2ccccc2)CCC[C@H](NC(=O)c2nccc(OC)c2OCOC(=O)COCC)C(=O)O[C@H]1C` [Compound F174], for which the pest or weed control at 100 ppm (in experiment [1] (setting [3]); in experiment [1] (setting [5]); in the experiment with Erysiphe cichoracearum; in the experiment on Venturia inaequalis; in experiment [2] (setting [6]); in experiment [2] (setting [7])) was 80 to 100% throughout. In addition, the pest or weed control at 121.5 g/ha in experiment [1] (setting [4]), in experiment [1] (setting [8]), in experiment [2] (setting [6]) and in experiment [2] (setting [7]) was 80 to 100% each time.
As to `CC[C@H]1CCC[C@H](NC(=O)c2nccc(OC)c2OC(C)=O)C(=O)O[C@@H](C)[C@@H]1Oc1ccccc1` [Compound F81], the pest or weed control at 100 ppm in experiment [1] (setting [3]) lay within 80 to 100%; in experiment [1] (setting [5]), 80 to 100%; with Erysiphe cichoracearum, 0 to 80%; in the experiment on Venturia inaequalis, 0 to 80%; in experiment [2] (setting [6]), 80 to 100%; in experiment [2] (setting [7]), 80 to 100%. For the same compound, the pest or weed control at 121.5 g/ha in experiment [1] (setting [4]), in experiment [1] (setting [8]), in experiment [2] (setting [6]) and in experiment [2] (setting [7]) was 80 to 100% each time.
